The test has as its system HGADFN167 Lmna^G608G/G608G fibroblasts. The test can be described thus: Cell cycle analysis by flow cytometry. It is filed as cell-based, human. The note with it: HGADFN167, 5 µM, 20 days. How it is done: Supporting Figure S5. Cell cycle analysis histogram. Flow cytometry analysis of DNA content showing cell cycle distribution with peaks corresponding to G0/G1 (labeled as M1) and G2/M phases, and an intermediate region representing S phase (S/G2/M are labeled as M2). Human progeroid LmnaG608G/G608G fibroblasts (HGADFN167 cells, from The Progeria Research Foundation) were incubated with 5 μM of compound 2 for 20 days and analyzed for DNA content by flow cytometry in a FACSCalibur Flow cytometer (Becton Dickinson). Images shown correspond to one representative analysis and bar graph represents mean±sem of 2 independent experiments performed in duplicate.
*p<0.05 vs HGADFN167 cells, one-way ANOVA. […]
Cells were harvested by trypsin, centrifuged and washed with PBS. Cells pellets were added with 70% (vol/vol) ice-cold ethanol. […] The mixture was then allowed to incubate for 30min at 37 °C in the dark and samples were finally analysed by FACScalibur (Becton Dickinson) flow cytometer […]
Cells were incubated for 1 h in 1% OsO4 at room temperature and then thoroughly washed with milliQ water. […] The samples were analysed and examined in the transmission electron microscope JEM 1010 at 80 […]
Total RNA of HGPS fibroblasts (HGADFN167) and UCM-18142-treated HGPS fibroblasts were extracted for RNA sequencing. The RNA concentration and integrity were assessed using the Tape Station 4150 system (Agilent). […]
On the technique in general: In flow cytometry, cells or beads pass a laser one at a time.

Each structure is given as a SMILES string.

As for `CC1(C)Oc2cc3oc(=O)ccc3cc2C[C@@H]1OC(=O)CCCCCNc1cccc2c1C(=O)N(C1CCC(=O)NC1=O)C2=O` (stereo partly shown) [compound 2], the “percentage of cells undergoing replication (phases S/G2/M)” value is “increase”.
